Like-named read-outs stand apart in the source and are kept apart here.
What was measured:
[1] = male, human, in vivo
QTcF interval = details: in vivo
clinical [2] = details: male, human, in vivo
clinical [3] = details: both, human, in vivo
[4] = in vivo; cited from earlier work
[5] = in vivo, cited from earlier work
CES-1, CatA and CYP3A = system: CES-1, CatA and CYP3A; parameters: species or system human
[6] = Sprague-Dawley, rat, in vivo, iv, 10 mg/kg
[7] = monkey, in vivo
[8] = both, human, in vivo
[9] = human, in vivo
MERS-CoV = details: rhesus monkey, in vivo; cited from earlier work
in vivo = details: rhesus monkey, iv
[10] = human, plasma; cited from earlier work
[11] = human; cited from earlier work
carboxylesterase 1 = details: cited from earlier work
cathepsin A = details: cited from earlier work
cytochrome P450 (CYP) 3A = details: cited from earlier work
pregnane X receptor = details: cited from earlier work
[12] = system: aryl hydrocarbon receptor; details: cited from earlier work
CYP3A4 = details: cited from earlier work
OATP1B1 [13] = details: cited from earlier work
OATP1B3 = details: cited from earlier work
MATE1 = details: cited from earlier work
CYP2C8 = details: recombinant enzyme; cited from earlier work
CYP2D6 = details: recombinant enzyme; cited from earlier work
CYP3A = details: recombinant enzyme; cited from earlier work
OATP1B1 [14] = details: cited from earlier work; remark: listed apart in the source
P-glycoprotein = details: cited from earlier work

**Q.** Which “secretory clearance as share of CLr” value [1] does the source give for `N#C[C@@]1(c2ccc3c(N)ncnn23)O[C@H](CO)[C@@H](O)[C@H]1O` [GS-441524] here?
**A.** The value was 21 % of CLr.

**Q.** And the QTcF interval prolongation (QTcF interval)?
**A.** Its QTcF interval prolongation is “do not cause QTcF interval prolongation”.

**Q.** What about the CL renal (clinical [2]; estimated secretory clearance CLr,s) of the same compound?
**A.** Its CL renal is 31 mL/min.

**Q.** And the Tmax (clinical [2]; iv)?
**A.** The Tmax was 3 h.

**Q.** And the CL renal (clinical [2]; renal clearance CLr)?
**A.** Its CL renal is 151 mL/min.

**Q.** And the AUC (clinical [3]; 100 mg)?
**A.** Its AUC is 2230 ng·h/mL.

**Q.** And the Cmax (clinical [3]; 100 mg)?
**A.** Its Cmax is 145 ng/mL.

**Q.** What about the Tmax (clinical [3]; 100 mg) of the same compound?
**A.** Its Tmax is 1.51 h.

**Q.** What about the half-life (clinical [3]; 100 mg, t1/2, median (Q1, Q3)) of the same compound?
**A.** The half-life was 27.4 h.

**Q.** And the AUC(0-t) (clinical [3]; 200 mg)?
**A.** Its AUC(0-t) is 2190 ng·h/mL.

**Q.** And the Cmax (clinical [3]; 200 mg)?
**A.** The Cmax was 143 ng/mL.

**Q.** What about the Tmax (clinical [3]; 200 mg) of the same compound?
**A.** The Tmax was 2 h.

**Q.** What about the “dose recovered in urine as this analyte” value [4] of the same compound?
**A.** The value was 48.6%.

**Q.** What about the t1/2 ([5]; 150 mg) of the same compound?
**A.** The t1/2 was ~ 24.5 h.

**Q.** And the “dose dependence of PK” value ([5]; iv)?
**A.** The value was “linear pharmacokinetics”.

**Q.** And the accumulation in plasma [5]?
**A.** The accumulation in plasma was “approximately 1.9 fold”.

**Q.** And the “steady state reached by day” value [5]?
**A.** The value was 4 days.

**Q.** And the “steady state reached on day” value [5]?
**A.** Its value is 4 days.

**Q.** With `CCC(CC)COC(=O)[C@H](C)N[P@](=O)(OC[C@H]1O[C@@](C#N)(c2ccc3c(N)ncnn23)[C@H](O)[C@@H]1O)Oc1ccccc1` [RDV, 2-ethylbutyl N-{(S)-[2-C(4-aminopyrrolo[2,1-f][1,2,4]triazin-7-yl)-2-5-anhydro-d-altrononitril-6-O-yl]phenoxyphosphoryl}-L-alaninate] as the compound, how does the extraction ratio (CES-1, CatA and CYP3A) read?
**A.** Its extraction ratio is 0.6–0.8.

**Q.** And the “administered radioactivity excreted in feces” value [6]?
**A.** Its value is 27.8%.

**Q.** And the “administered radioactivity excreted in urine” value [6]?
**A.** The value was 63.0%.

**Q.** What about the “time within which most of the radioactivity was excreted” value [6] of the same compound?
**A.** Its value is no more than 48 h.

**Q.** And the “administered radioactivity recovered in feces” value [7]?
**A.** Its value is 25.6%.

**Q.** And the “administered radioactivity recovered in urine” value [7]?
**A.** The value was 33.6%.

**Q.** What about the “blood-to-plasma ratio of [14C]-radioactivity” value [1] of the same compound?
**A.** Its value is 0.68.

**Q.** What about the “mean total recovery of the radioactive dose” value [1] of the same compound?
**A.** Its value is greater than 92%.

**Q.** And the “radioactive dose recovered in feces” value [1]?
**A.** The value was roughly 18%.

**Q.** And the “radioactive dose recovered in urine” value [1]?
**A.** Its value is “approximately 74%”.

**Q.** And the “median time of occurrence of maximum observed plasma concentration” value [8]?
**A.** Its value is ~ 0.7 h.

**Q.** And the “graded ALT abnormalities” value ([9]; both)?
**A.** The value was “eight participants with Grade 1 and 1 subject with Grade 2 ALT abnormalities”.

**Q.** What about the “infusion-site phlebitis, participants” value ([9]; both) of the same compound?
**A.** The value was 40%.

**Q.** And the “serious AEs, Grade 3 or 4 AEs, deaths” value ([9]; both)?
**A.** Its value is “no serious AEs, Grade 3 or 4 AEs, or deaths”.

**Q.** And the “graded ALT abnormalities” value [9]?
**A.** Its value is “no graded alanine aminotransferase (ALT) abnormalities”.

**Q.** And the overall tolerability [9]?
**A.** The overall tolerability was “generally well tolerated”.

**Q.** What about the “transient Grade 1 AST abnormalities” value [9] of the same compound?
**A.** The value was “four of the nine participants with graded ALT abnormalities”.

**Q.** And the “upper bound of two-sided 90% CI of predicted mean ΔΔQTcF” value (QTcF interval; human)?
**A.** Its value is less than 10 ms.

**Q.** And the QTcF interval prolongation (QTcF interval)?
**A.** The QTcF interval prolongation was “do not cause QTcF interval prolongation”.

**Q.** And the “lung viral loads lower in each lung lobe” value (MERS-CoV)?
**A.** Its value is 2.5–4 logs.

**Q.** What about the “lung viral loads versus vehicle-treated animals” value (MERS-CoV) of the same compound?
**A.** Its value is “lower when all lung lobes were combined”.

**Q.** And the “prophylactic efficacy versus vehicle-treated animals” value (MERS-CoV)?
**A.** Its value is “significant reduction in clinical scores, clinical signs of respiratory disease, and viral RNA levels”.

**Q.** What about the AUC(0-t) (in vivo) of the same compound?
**A.** Its AUC(0-t) is 1430 ng·h/mL.

**Q.** What about the Cmax (in vivo) of the same compound?
**A.** The Cmax was 3350 ng/mL.

**Q.** And the clearance (clinical [2])?
**A.** Its clearance is 1170 mL/min.

**Q.** And the half-life (clinical [2]; iv, 150 mg)?
**A.** The half-life was roughly 1 h.

**Q.** And the CL renal (clinical [2]; renal clearance CLr)?
**A.** Its CL renal is 129 mL/min.

**Q.** And the AUC (clinical [3]; 100 mg)?
**A.** The AUC was 1590 ng·h/mL.

**Q.** And the Cmax (clinical [3]; 100 mg)?
**A.** Its Cmax is 2230 ng/mL.

**Q.** What about the Tmax (clinical [3]; 100 mg) of the same compound?
**A.** The Tmax was 0.68 h.

**Q.** What about the clearance (clinical [3]; 100 mg, CLss, mean (%CV)) of the same compound?
**A.** Its clearance is roughly 1080 mL/min.

**Q.** And the half-life (clinical [3]; 100 mg, t1/2, median (Q1, Q3))?
**A.** The half-life was 0.96 h.

**Q.** And the AUC(0-t) (clinical [3]; 200 mg)?
**A.** Its AUC(0-t) is 2860 ng·h/mL.

**Q.** And the Cmax (clinical [3]; 200 mg)?
**A.** Its Cmax is 4380 ng/mL.

**Q.** What about the Tmax (clinical [3]; 200 mg) of the same compound?
**A.** The Tmax was 0.67 h.

**Q.** And the half-life (clinical [3]; 200 mg, t1/2, median (Q1, Q3))?
**A.** The half-life was 0.9 h.

**Q.** And the AUC (clinical [3]; iv)?
**A.** Its AUC is 1590 ng·h/mL.

**Q.** And the half-life (clinical [3]; median t1/2)?
**A.** The half-life was roughly 1 h.

**Q.** And the “dose recovered in urine as this analyte” value [4]?
**A.** The value was 10.3%.

**Q.** What about the “protein binding (bound)” value [10] of the same compound?
**A.** Its value is 88–93.6%.

**Q.** And the “mean whole blood/plasma concentration ratio” value [11]?
**A.** Its value is 0.76.

**Q.** What about the “contribution to total metabolism” value (carboxylesterase 1) of the same compound?
**A.** The value was 80%.

**Q.** And the “contribution to total metabolism” value (cathepsin A)?
**A.** Its value is 10%.

**Q.** And the “CYP-dependent hepatic metabolism, share of total hepatic clearance” value (cytochrome P450 (CYP) 3A)?
**A.** The value was 10%.

**Q.** And the “contribution to total metabolism” value (cytochrome P450 (CYP) 3A)?
**A.** Its value is 10%.

**Q.** What about the accumulation [5] of the same compound?
**A.** Its accumulation is “lack of accumulation”.

**Q.** And the “induction of enzymes or transporters via pregnane X receptor” value (pregnane X receptor)?
**A.** The value was “no potential for induction”.

**Q.** And the “induction of enzymes or transporters via aryl hydrocarbon receptor” value [12]?
**A.** Its value is “no potential for induction”.

**Q.** What about the “inhibition of CYP3A4” value (CYP3A4) of the same compound?
**A.** Its value is “weak inhibitor”.

**Q.** And the “inhibition of OATP1B1” value (OATP1B1 [13])?
**A.** The value was “weak inhibitor”.

**Q.** And the “inhibition of OATP1B3” value (OATP1B3)?
**A.** The value was “weak inhibitor”.

**Q.** And the “inhibition of MATE1” value (MATE1)?
**A.** The value was “weak inhibitor”.

**Q.** And the “metabolism by CYP2C8” value (CYP2C8)?
**A.** Its value is “can be metabolized”.

**Q.** What about the “metabolism by CYP2D6” value (CYP2D6) of the same compound?
**A.** The value was “can be metabolized”.

**Q.** And the “metabolism by CYP3A” value (CYP3A)?
**A.** The value was “can be metabolized”.

**Q.** What about the “substrate for OATP1B1” value (OATP1B1 [14]) of the same compound?
**A.** Its value is “substrate”.

**Q.** And the “substrate for P-glycoprotein” value (P-glycoprotein)?
**A.** Its value is “substrate”.

Source: article PMC8007387 (Clinical Pharmacokinetics, 2021)
